PubChem BioAssay (NCI)
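Tested at 5 concentrations; 48 h exposure; 96-well plates; endpoints linearly interpolated, else capped at highest concentration. Here, GI50 denotes the concentration required for 50% inhibition of growth. TGI denotes the concentration required for complete inhibition of growth.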

How the values were obtained:
Test in all cases: NCI-60 cell line screen, 48 h
[1] = test system: OVCAR-5 ovarian
[2] = test system: T-47D breast
[3] = test system: IGROV1 ovarian
[4] = test system: NCI-H226 lung
[5] = test system: HL-60(TB) leukemia
[6] = test system: HCT-15 colon
[7] = test system: MDA-MB-468 breast
[8] = test system: SF-268 CNS
[9] = test system: A549 NSCLC
[10] = test system: CAKI-1 renal
[11] = test system: LOX IMVI melanoma
[12] = test system: NCI/ADR-RES ovarian
[13] = test system: PC-3 prostate
[14] = test system: NCI-H23 lung
[15] = test system: ACHN renal
[16] = test system: SF-295 CNS
[17] = test system: U251 CNS
[18] = test system: RPMI-8226 leukemia
[19] = test system: HOP-92 NSCLC
[20] = test system: SK-MEL-28 melanoma
[21] = test system: OVCAR-4 ovarian
[22] = test system: HCT-116 colon
[23] = test system: CCRF-CEM leukemia
[24] = test system: SN12C renal
[25] = test system: HT29 colon
[26] = test system: HOP-62 NSCLC
[27] = test system: SK-MEL-5 melanoma
[28] = test system: M14 melanoma
[29] = test system: 786-0 renal
[30] = test system: SF-539 CNS
[31] = test system: EKVX NSCLC
[32] = test system: KM12 colon
[33] = test system: A498 renal
[34] = test system: NCI-H522 lung
[35] = test system: RXF 393 renal
[36] = test system: NCI-H460 lung
[37] = test system: SW-620 colon
[38] = test system: UACC-62 melanoma
[39] = test system: TK-10 renal
[40] = test system: SK-OV-3 ovarian
[41] = test system: MALME-3M melanoma
[42] = test system: OVCAR-3 ovarian
[43] = test system: HS 578T breast
[44] = test system: COLO 205 colon
[45] = test system: MOLT-4 leukemia
[46] = test system: MDA-MB-435
[47] = test system: MCF7 breast
[48] = test system: BT-549 breast
[49] = test system: SNB-19 CNS
[50] = test system: DU-145 prostate
[51] = test system: OVCAR-8 ovarian
[52] = test system: HCC-2998 colon
[53] = test system: UACC-257 melanoma
[54] = test system: K-562 leukemia
[55] = test system: SR leukemia

O=C(Nc1nc2ccc([N+](=O)[O-])cc2s1)Nc1ccccc1I
GI50 [1]: 9.78 µM
TGI [1]: 86.6 µM
GI50 [2]: 2.57 µM
TGI [2]: 8.98 µM
GI50 [3]: 3.97 µM
TGI [3]: > 100 µM
GI50 [4]: 3.77 µM
TGI [4]: 19.4 µM
GI50 [5]: 2.15 µM
TGI [5]: 7.92 µM
GI50 [6]: 3.4 µM
TGI [6]: 14.6 µM
GI50 [7]: 2.41 µM
TGI [7]: 7.79 µM
GI50 [8]: 3.78 µM
TGI [8]: > 100 µM
GI50 [9]: 3.81 µM
TGI [9]: 19.2 µM
GI50 [10]: 3.46 µM
TGI [10]: > 100 µM
GI50 [11]: 3.67 µM
TGI [11]: 15.1 µM
GI50 [12]: 3.12 µM
TGI [12]: 11.8 µM
GI50 [13]: 3.43 µM
TGI [13]: 84.2 µM
GI50 [14]: 2.76 µM
TGI [14]: 8.15 µM
GI50 [15]: 3.58 µM
TGI [15]: 15.6 µM
GI50 [16]: 3.34 µM
TGI [16]: 14.8 µM
GI50 [17]: 3.3 µM
TGI [17]: 12.7 µM
GI50 [18]: 2.08 µM
TGI [18]: 5.74 µM
GI50 [19]: 2.3 µM
TGI [19]: 6.95 µM
GI50 [20]: 3.4 µM
TGI [20]: 39 µM
GI50 [21]: 3.94 µM
TGI [21]: > 100 µM
GI50 [22]: 3.46 µM
TGI [22]: 12.6 µM
GI50 [23]: 3.57 µM
TGI [23]: 52 µM
GI50 [24]: 3.1 µM
TGI [24]: 12.2 µM
GI50 [25]: 5.76 µM
TGI [25]: 20 µM
GI50 [26]: 6.16 µM
TGI [26]: 21.4 µM
GI50 [27]: 1.86 µM
TGI [27]: 3.86 µM
GI50 [28]: 4.28 µM
TGI [28]: 89.8 µM
GI50 [29]: 3.61 µM
TGI [29]: 32.1 µM
GI50 [30]: 3.45 µM
TGI [30]: 12.9 µM
GI50 [31]: 3.05 µM
TGI [31]: 12.3 µM
GI50 [32]: 3.82 µM
TGI [32]: > 100 µM
GI50 [33]: 2.57 µM
TGI [33]: 8.12 µM
GI50 [34]: 2.73 µM
TGI [34]: 9.1 µM
GI50 [35]: 4.18 µM
TGI [35]: 24.2 µM
GI50 [36]: 3.55 µM
TGI [36]: 16.4 µM
GI50 [37]: 4.35 µM
TGI [37]: 31.7 µM
GI50 [38]: 3.31 µM
TGI [38]: 37.1 µM
GI50 [39]: 3.43 µM
TGI [39]: 24.3 µM
GI50 [40]: 2.67 µM
TGI [40]: 9.38 µM
GI50 [41]: 2.37 µM
TGI [41]: 8.4 µM
GI50 [42]: 3.11 µM
TGI [42]: 10.7 µM
GI50 [43]: 3.23 µM
TGI [43]: > 100 µM
GI50 [44]: 4.89 µM
TGI [44]: 20 µM
GI50 [45]: 2.92 µM
TGI [45]: 8.41 µM
GI50 [46]: 3.78 µM
TGI [46]: > 100 µM
GI50 [47]: 2.91 µM
TGI [47]: 11 µM
GI50 [48]: 2.86 µM
TGI [48]: 10.5 µM
GI50 [49]: 3.32 µM
TGI [49]: 19 µM
GI50 [50]: 4.25 µM
TGI [50]: > 100 µM
GI50 [51]: 4.58 µM
TGI [51]: 20.6 µM
GI50 [52]: 4.12 µM
TGI [52]: 23.4 µM
GI50 [53]: 3.17 µM
TGI [53]: 16 µM
GI50 [54]: 3.23 µM
TGI [54]: 13.9 µM
GI50 [55]: 2.06 µM
TGI [55]: 5.03 µM
